“And” between values parts separate entries of the source, which are not always exact repeats. Equal entries are not always repeated.
Target: T1, particulate guanylyl cyclase receptor A (pGC-A) (Homo sapiens, UniProt P16066)
T1 construct: expressed in transfected cells; host or cells: HEK293
T1 sequence (P16066 33-1061): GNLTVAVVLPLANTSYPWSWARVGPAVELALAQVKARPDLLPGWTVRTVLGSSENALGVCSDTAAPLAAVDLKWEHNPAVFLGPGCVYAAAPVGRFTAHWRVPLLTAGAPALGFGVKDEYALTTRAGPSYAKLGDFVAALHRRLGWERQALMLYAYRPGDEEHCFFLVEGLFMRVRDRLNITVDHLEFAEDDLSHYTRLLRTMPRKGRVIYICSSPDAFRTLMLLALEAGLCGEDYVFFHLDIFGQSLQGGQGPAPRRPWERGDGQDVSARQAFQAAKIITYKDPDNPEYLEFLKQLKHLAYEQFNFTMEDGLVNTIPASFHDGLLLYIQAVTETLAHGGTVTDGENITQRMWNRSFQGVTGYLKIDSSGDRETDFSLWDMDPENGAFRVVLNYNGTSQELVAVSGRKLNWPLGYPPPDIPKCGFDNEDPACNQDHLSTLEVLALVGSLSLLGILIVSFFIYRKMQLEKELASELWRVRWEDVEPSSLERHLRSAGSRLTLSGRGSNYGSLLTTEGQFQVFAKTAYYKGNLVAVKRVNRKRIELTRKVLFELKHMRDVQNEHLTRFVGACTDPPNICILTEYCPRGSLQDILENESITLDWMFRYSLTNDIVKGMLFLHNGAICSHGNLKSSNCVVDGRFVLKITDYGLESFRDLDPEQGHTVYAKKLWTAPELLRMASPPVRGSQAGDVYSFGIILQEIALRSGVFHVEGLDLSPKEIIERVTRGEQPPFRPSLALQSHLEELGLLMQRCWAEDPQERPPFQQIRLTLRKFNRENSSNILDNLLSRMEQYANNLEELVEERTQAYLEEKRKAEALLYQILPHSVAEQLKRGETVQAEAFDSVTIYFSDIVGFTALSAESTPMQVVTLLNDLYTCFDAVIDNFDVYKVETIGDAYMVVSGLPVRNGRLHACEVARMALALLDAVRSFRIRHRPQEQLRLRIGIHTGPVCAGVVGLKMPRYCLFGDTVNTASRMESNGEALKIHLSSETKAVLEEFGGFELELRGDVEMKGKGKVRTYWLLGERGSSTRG
T1 sequence (P01160 124-151 partner limits assumed): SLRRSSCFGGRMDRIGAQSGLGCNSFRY
Assay: cGMP production by HTRF in HEK293 cells overexpressing pGC-A, with ANP
Type: cell-based
Conditions: for Emax: HEK293, HEK293 cells overexpressing pGC-A, read-out: Max efficacy; for EC50: test compound plus EC20 concentration of ANP, cGMP by HTRF
From the text: Assay: Generally, the assay monitors the production of cGMP, the second messenger generated by pGC-A, by Time-Resolved Florescence (HTRF) in HEK293 cells overexpressing the pGC-A. pGC-A suspension cells were stimulated in the presence of the test compound and an EC20 concentration of ANP. The quantity of cGMP was detected by competitive immunoassay using Eu^3+ cryptate-labeled anti-cGMP and d2-labeled cGMP and normalized to maximal amount produced by an EC80 concentration of ANP. Compound EC50 values were determined in the primary assay, in the presence or absence of ANP, to determine mode of action as positive modulators and tested for selectivity in the same assay platform but in HEK cells overexpressing the particulate guanylyl cyclase B receptor (pGC-B), of which CNP is the endogenous ligand.
Assay details: 20 nL of 10 μM test compound in DMSO was added to columns 5-48 of 1536 well white high base screening plates (Corning, New York, NY) cells using 550 ECHO acoustic dispenser (Labcyte, San Jose, CA). Alpha-atrial natriuretic peptide (ANP) (Phoenix Pharmaceutics) was prepared as stock aliquots at 5 μM in PBS with 0.1% BSA. An approximate […] concentration of ANP ([…]) in assay buffer (HBSS containing 5 mM HEPES and 0.05% BSA) was added to columns 3-48 at a volume of 1 μL. Assay buffer only was added to column 1 and assay buffer containing a saturating concentration of ANP (5 nM) was added to column 2. HEK293 cells overexpressing GC-A were resuspended in assay media (OptimMem media containing 2% Heat-inactivated Fetal bovine serum and L-glutamine) at a density of 6×10^5 cells/mL and 2 μL were plated in screening plates (1200 cells/well) in suspension using a Bioraptr 2. Plates were spun at 1000 rpm for 1 min and incubated for 30 min at room temperature. 1.5 μL d2-labeled cGMP followed by 1.5 μL Eu^3+ cryptate-labeled anti-cGMP cGMP detection kit (CiBio; #62GM2PEC) prepared according to manufacturer's protocol were added to all wells using a Bioraptr 2 and TR-FRET signal was detected on an EnVision detector (PerkinElmer). Wells treated with 0.3% DMSO only serve as blank controls (column 1); wells treated with 0.3% DMSO and 5 nM ANP (columns 2) serve as positive controls and wells treated with 0.3% DMSO and […] ANP (columns 3-4) serve as negative controls.

[1] = cGMP normalized to maximal amount produced by an EC80 concentration of ANP
[2] = HEK293 cells overexpressing pGC-A

Row | Emax [1] [%] | EC50 [2] | Max efficacy (HEK293 cells overexpressing pGC-A, cGMP normalized to maximal amount produced by an EC80 concentration of ANP) [%] | SMILES
1 | 92 |  |  | N[C@H]1CCCC(C(=O)Nc2nc3c(F)cc(F)cc3s2)C1 (stereo partly drawn) [210C]
2 |  | 1.9 µM |  | N[C@H]1CCC[C@H](C(=O)Nc2nc3c(F)cc(F)cc3s2)C1 [210C]
3 | 86 | 0.5 µM |  | N[C@@H]1CCC[C@@H](C(=O)Nc2nc3c(F)cc(F)cc3s2)C1 [210T]
4 |  | > 5 µM |  | CN(C)CCN1CCCC(C(=O)Nc2nc3c(F)cc(F)cc3[nH]2)C1 (stereo not drawn) [249a]
5 | 72 |  |  | O=C(Nc1nc2c(F)cc(F)cc2[nH]1)C1CCCNC1 (stereo not drawn) [249b]
6 |  | > 10 µM |  | CN(C)CCN1CCCC(C(=O)Nc2nc3c(C(F)(F)F)cccc3s2)C1 (stereo not drawn) [compound 002]
7 |  | > 10 µM |  | CN(C)CCN1CCCC(C(=O)Nc2nc3c(-c4ccccc4)cccc3s2)C1 (stereo not drawn) [compound 003]
8 |  | > 10 µM |  | CN(C)CCN1CCCC(C(=O)Nc2nc3c(Cc4ccccc4)cccc3s2)C1 (stereo not drawn) [compound 004]
9 |  | > 10 µM |  | Cc1cccc2sc(NC(=O)C3CCCN(CCN(C)C)C3)nc12 (stereo not drawn) [compound 005]
10 |  | > 10 µM |  | COc1cccc2sc(NC(=O)C3CCCN(CCN(C)C)C3)nc12 (stereo not drawn) [compound 006]
11 | 41 | 0.6 µM |  | CN(C)CCN1CCCC(C(=O)Nc2nc3c(C#N)cccc3s2)C1 (stereo not drawn) [compound 007]
12 |  | > 10 µM |  | CN(C)CCN1CCCC(C(=O)Nc2nc3cc(F)ccc3s2)C1 (stereo not drawn) [compound 010]
13 |  | > 10 µM |  | CN(C)CCN1CCCC(C(=O)Nc2nc3cc(Cl)ccc3s2)C1 (stereo not drawn) [compound 011]
14 |  | > 10 µM |  | COc1ccc2sc(NC(=O)C3CCCN(CCN(C)C)C3)nc2c1 (stereo not drawn) [compound 013]
15 |  | > 10 µM |  | CN(C)CCN1CCCC(C(=O)Nc2nc3ccc(F)cc3s2)C1 (stereo not drawn) [compound 015]
16 | 94 | 9.5 µM |  | CN(C)CCN1CCCC(C(=O)Nc2nc3ccc(Cl)cc3s2)C1 (stereo not drawn) [compound 016]
17 |  | > 10 µM |  | Cc1ccc2nc(NC(=O)C3CCCN(CCN(C)C)C3)sc2c1 (stereo not drawn) [compound 017]
18 |  | > 10 µM |  | COc1ccc2nc(NC(=O)C3CCCN(CCN(C)C)C3)sc2c1 (stereo not drawn) [compound 018]
19 |  | > 5 µM |  | CN(C)CCN1CCCC(C(=O)Nc2nc3c(F)cc(C(F)(F)F)cc3s2)C1 (stereo not drawn) [compound 019]
20 | 101 | 0.9 µM |  | Cc1cc(F)c2nc(NC(=O)C3CCCN(CCN(C)C)C3)sc2c1 (stereo not drawn) [compound 020]
21 |  | 6.7 µM and 1.7 µM | 77 | COc1cc(F)c2nc(NC(=O)C3CCCN(CCN(C)C)C3)sc2c1 (stereo not drawn) [compound 021]
22 |  | > 5 µM |  | CN(C)CCN1CCCC(C(=O)Nc2nc3c(F)cc(-c4ccccc4)cc3s2)C1 (stereo not drawn) [compound 022]
23 |  | > 5 µM |  | COC(=O)c1cc(F)c2nc(NC(=O)C3CCCN(CCN(C)C)C3)sc2c1 (stereo not drawn) [compound 023]
24 |  | > 5 µM |  | CCOc1cc(F)c2nc(NC(=O)C3CCCN(CCN(C)C)C3)sc2c1 (stereo not drawn) [compound 026]
25 |  | > 5 µM |  | COCc1cc(F)c2nc(NC(=O)C3CCCN(CCN(C)C)C3)sc2c1 (stereo not drawn) [compound 029]
26 |  | > 5 µM |  | COCc1cc(F)c2nc(NC(=O)C3CCCNC3)sc2c1 (stereo not drawn) [compound 030]
27 | 85 | 4.3 µM |  | CN(C)CCN1CCCC(C(=O)Nc2nc3cccc(F)c3s2)C1 (stereo not drawn) [compound 032]

— patent US20250092030A1, “ENHANCERS OF PARTICULATE GUANYLYL CYCLASE RECEPTOR A” (Mayo Foundation for Medical Education and Research, priority 2023, published 2025)
